From patent US4246282A, “ω-Dialkylalkanoic acid derivatives used to induce antianoxic activity” (Labaz, priority 1979, dated 1981)

Legend:
[1] = rota rod test (neurotoxicity, coordination of movements on a turning rod)
Protocol: This test enables the animal's ability to coordinate its movements on a turning rod to be evaluated. […] (a) 15 min. after administration of 500 mg/kg by oral route:

[2] = β-Mercaptopropionic acid seizure (protection against the tonic seizure); format: in vivo, mice; conditions: Mus musculus, 0.25 h
Protocol: β-Mercaptopropionic acid is an inhibitor of glutamate decarboxylase (G.A.D.), an enzyme which catalyses the transformation of glutamate into γ-aminobutyric acid (GABA). As a consequent of this, a decrease in the GABA lever occurs together with generalized tonico-clonic seizures 3 to 4 minutes after administration.
In the present test, β-mercaptopropionic acid was administered intraperitoneally to batches of 10 male mice, at a dose of 70 mg/kg, 30 minutes after oral administration of a dose of the compound to be studied. The percentage of animals protected against the tonic seizure was registered 15 minutes after administration of the β-mercaptopropionicacid.

[3] = Pentylenetetrazol seizure; format: in vivo, mice; conditions: Mus musculus, 0.25 h
[4] = Anoxia in confined space (period of survival); format: in vivo, mice
Protocol: Batches of 15 male mice were treated with a dose of a compound to be studied. After that, each animal was placed in a hermetically sealed box of 200 cm^3. The animal was considered to be dead when it had stopped breathing.
The increase in the period of survival was then noted in % in comparison with the controls. […]

[5] = 15 min. after administration of 500 mg/kg by oral route
[6] = 30 min. after administration of 500 mg/kg by oral route
[7] = 15 min. after administration of 100 mg/kg by intraperitoneal route
[8] = 30 min. after administration of 100 mg/kg by intraperitoneal route

## CCCC(CCC)CC(=O)[O-].[Na+]
[1]; [5]
  % of failures: 30%
[1]; [6]
  % of failures: 30%
[2]; po
  ED50: 168 mg/kg
[3]; po
  ED50: 95 mg/kg

## CCCC(CCC)CC(N)=O [3-n-propyl-hexanamide, 3-n-Propyl-hexanamide]
[1]; [5]
  % of failures: 30%
[1]; [6]
  % of failures: 10%

## CCCC(CCC)CCC(N)=O [4-n-propyl-heptanamide, 4-n-Propyl-heptanamide]
[1]; [7]
  % of failures: 0%

## CCCC(CCC)CCCC(N)=O [5-n-propyl-octanamide, 5-n-Propyl-octanamide]
[1]; [5]
  % of failures: 0%
[1]; [8]
  % of failures: 50%

## CCCC(CCC)CCC(=O)O [ONa, n = 1]
[1]; [7]
  % of failures: 30%

## CCCC(CCC)CCCC(=O)O [ONa, n = 2]
[1]; [5]
  % of failures: 20%
[1]; [8]
  % of failures: 100%
[2]; male mice, oral, 30 min before β-mercaptopropionic acid 70 mg/kg i.p., registered 15 minutes after, read-out: ED50
  ED50: 273 mg/kg

## CCCC(CCC)C(N)=O [di-n-propylacetamide]
[4]; 50 mg/kg intraperitoneal
  increase in survival time: 12%
[1]; 15 minutes after administration of 170 mg/kg by oral route
  % of failures: 50%
[3]; mice, oral route, registered 15 minutes after pentylenetetrazol, read-out: ED50
  ED50: 46 mg/kg

## CCCC(CCC)C(=O)[O-].[Na+] [sodium di-n-propylacetate]
[4]; 200 mg/kg intraperitoneal
  increase in survival time: 32%
[2]; po, an other comparative test, read-out: ED50
  ED50: 175 mg/kg
